Results taken from patent US20230107642A1 (Erasca, Inc., priority 2020, published 2023).

Target: T1, K-Ras G12C (Homo sapiens, UniProt P01116, G12C)
T1 construct: This protein contained 188 amino acids in total, including an N-terminal 6-Histidine tag; made in house; host or cells: E. coli BL21
Test: CAF assay (% CAF; method in Example 7, not in this part)
Format: binding
Details: 10 uM compound, 1 h incubation

Row | % CAF @ 10 uM, 1h | Structure (SMILES)
1 | 50.6% | C=CC(=O)N1C[C@H](C)N(c2nc(=O)n3c4c(c(-c5cc(Cl)c(F)cc5F)c(Cl)cc24)SC[C@@H]3CN2C[C@@H]3C[C@H]2CO3)C[C@H]1C [Example 500, (3S)-3-((1S,4S)-2-oxa-5-azabicyclo[2.2.1]heptan-5-ylmethyl)-7-((2S,5R)-4-acryloyl-2,5-dimethylpiperazin-1-yl)-9-chloro-10-(5-chloro-2,4-difluorophenyl)-2H-[1,4]thiazino[2,3,4-ij]quinazolin-5(3H)-one]
2 | 94% | C=CC(=O)N1CCN(c2nc(=O)n3c4c(c(-c5cc(F)c(F)cc5F)c(Cl)cc24)SCC3)[C@@H](C)C1 [Example 409, 7-((S)-4-acryloyl-2-methylpiperazin-1-yl)-9-chloro-10-(2,4,5-trifluorophenyl)-2,3-dihydro-5H-[1,4]thiazino[2,3,4-ij]quinazolin-5-one]
3 | 98% | C=CC(=O)N1CCN(c2nc(=O)n3c4c(c(-c5ccc(F)cc5)c(Cl)cc24)SC[C@H](OC)C3)[C@@H](C)C1 [Example 528, (R)-8-((S)-4-acryloyl-2-methylpiperazin-1-yl)-10-chloro-11-(4-fluorophenyl)-3-methoxy-3,4-dihydro-2H,6H-[1,4]thiazepino[2,3,4-ij]quinazolin-6-one]
4 | 40.6% | C=CC(=O)N1C[C@H](C)N(c2nc(=O)n3c4c(c(-c5cc(Cl)c(F)cc5F)c(C(F)(F)F)cc24)SC[C@@H]3CN2CCN(CC(F)F)CC2)C[C@H]1C [Example 521, (3S)-7-((2S,5R)-4-acryloyl-2,5-dimethylpiperazin-1-yl)-10-(5-chloro-2,4-difluorophenyl)-3-((4-(2,2-difluoroethyl)piperazin-1-yl)methyl)-9-(trifluoromethyl)-2H-[1,4]thiazino[2,3,4-ij]quinazolin-5(3H)-one]
5 | 61.3% | C=CC(=O)N1C[C@H](C)N(c2nc(=O)n3c4c(c(-c5ccc(F)cc5F)c(Cl)cc24)SC[C@@H]3CN2C[C@@H]3C[C@H]2CO3)C[C@H]1C [Example 519, (3S)-3-((1S,4S)-2-oxa-5-azabicyclo[2.2.1]heptan-5-ylmethyl)-7-((2S,5R)-4-acryloyl-2,5-dimethylpiperazin-1-yl)-9-chloro-10-(2,4-difluorophenyl)-2H-[1,4]thiazino[2,3,4-ij]quinazolin-5(3H)-one]
6 | 72.9% | C=CC(=O)N1C[C@H](C)N(c2nc(=O)n3c4c(c(-c5ccc(F)cc5F)c(C(F)(F)F)cc24)SC[C@@H]3COCCOC)C[C@H]1C (atropisomer, axis not shown) [Example 510, (3S,10S)-7-((2S,5R)-4-acryloyl-2,5-dimethylpiperazin-1-yl)-10-(2,4-difluorophenyl)-3-((2-methoxyethoxy)methyl)-9-(trifluoromethyl)-2,3-dihydro-5H-[1,4]thiazino[2,3,4-ij]quinazolin-5-one]
7 | 86.6% | C=CC(=O)N1CCN(c2nc(=O)n3c4c(c(-c5ccc(F)cc5F)c(Cl)cc24)SC[C@@H]3CC2CCN(CC)CC2)[C@@H](C)C1 [Example 413, (3S)-7-((S)-4-acryloyl-2-methylpiperazin-1-yl)-9-chloro-10-(2,4-difluorophenyl)-3-((1-ethylpiperidin-4-yl)methyl)-2H-[1,4]thiazino[2,3,4-ij]quinazolin-5(3H)-one]
8 | 96.7% | C=CC(=O)N1[C@H](C)CN(c2nc(=O)n3c4c(c(-c5ccc(F)cc5F)c(C(F)(F)F)cc24)SC[C@@H]3COC)C[C@@H]1C (atropisomer, axis not shown) [Example 547, (3S,10R)-7-((3S,5R)-4-acryloyl-3,5-dimethylpiperazin-1-yl)-10-(2,4-difluorophenyl)-3-(methoxymethyl)-9-(trifluoromethyl)-2,3-dihydro-5H-[1,4]thiazino[2,3,4-ij]quinazolin-5-one]
9 | 68.2% | C=CC(=O)N1C[C@H](C)N(c2nc(=O)n3c4c(c(-c5ccc(F)cc5)c(Cl)cc24)SC[C@@H]3CN2CCn3c(nnc3C(F)(F)F)C2)C[C@H]1C [Example 445, (S)-7-((2S,5R)-4-acryloyl-2,5-dimethylpiperazin-1-yl)-9-chloro-10-(4-fluorophenyl)-3-((3-(trifluoromethyl)-5,6-dihydro-[1,2,4]triazolo[4,3-a]pyrazin-7(8H)-yl)methyl)-2H-[1,4]thiazino[2,3,4-ij]quinazolin-5(3H)-one]
10 | 91% | C=CC(=O)N1CCN(c2nc(=O)n3c4c(c(-c5cc(Cl)c(F)cc5F)c(C(F)(F)F)cc24)SC[C@@H](OC)C3)[C@@H](C)C1 [Example 583, (3S)-8-((S)-4-acryloyl-2-methylpiperazin-1-yl)-11-(5-chloro-2,4-difluorophenyl)-3-methoxy-10-(trifluoromethyl)-3,4-dihydro-2H,6H-[1,4]thiazepino[2,3,4-ij]quinazolin-6-one]
11 | 58.9% | C=CC(=O)N1[C@H](C)CN(c2nc(=O)n3c4c(c(-c5cc(Cl)c(F)cc5F)c(C(F)(F)F)cc24)SC[C@@H]3CN(C)C)C[C@@H]1C [Example 587, (3S)-7-((3S,5R)-4-acryloyl-3,5-dimethylpiperazin-1-yl)-10-(5-chloro-2,4-difluorophenyl)-3-((dimethylamino)methyl)-9-(trifluoromethyl)-2H-[1,4]thiazino[2,3,4-ij]quinazolin-5(3H)-one]
12 | 13.9% | C=CC(=O)N1CCN(c2nc(=O)n3c4c(c(-c5c(F)cc(F)cc5F)c(Cl)cc24)SC[C@H]3CN2CCN(CC)CC2)[C@@H](C)C1 [Example 424, (R)-7-((S)-4-acryloyl-2-methylpiperazin-1-yl)-9-chloro-3-((4-ethylpiperazin-1-yl)methyl)-10-(2,4,6-trifluorophenyl)-2H-[1,4]thiazino[2,3,4-ij]quinazolin-5(3H)-one]
13 | 91.2% | C=CC(=O)N1CCN(c2nc(=O)n3c4c(c(-c5cc(F)c(F)cc5F)c(Cl)cc24)SC[C@@H]3CN2CCN(CC)CC2)[C@@H](C)C1 [Example 416, (3S)-7-((S)-4-acryloyl-2-methylpiperazin-1-yl)-9-chloro-3-((4-ethylpiperazin-1-yl)methyl)-10-(2,4,5-trifluorophenyl)-2H-[1,4]thiazino[2,3,4-ij]quinazolin-5(3H)-one]
14 | 72.4% | C=CC(=O)N1CCN(c2nc(=O)n3c4c(c(-c5cc(F)c(F)cc5F)c(C(F)(F)F)cc24)SC[C@@H]3COCOC)[C@@H](C)C1 [Example 522, (3S)-7-((S)-4-acryloyl-2-methylpiperazin-1-yl)-3-((methoxymethoxy)methyl)-9-(trifluoromethyl)-10-(2,4,5-trifluorophenyl)-2H-[1,4]thiazino[2,3,4-ij]quinazolin-5(3H)-one]

Row | Structure (SMILES) | % CAF @ 10 uM, 1h
15 | C=C(F)C(=O)N1C2CC(=O)CC1CN(c1nc(=O)n3c4c(c(-c5ccc(F)cc5F)c(C(F)(F)F)cc14)SCCC3)C2 [Example 451, 11-(2,4-difluorophenyl)-8-(9-(2-fluoroacryloyl)-7-oxo-3,9-diazabicyclo[3.3.1]nonan-3-yl)-10-(trifluoromethyl)-3,4-dihydro-2H,6H-[1,4]thiazepino[2,3,4-ij]quinazolin-6-one] | 61%

Same assay, conditions: 10 uM, 1 h; Table 3

Row | Structure (SMILES) | % CAF @ 10 uM, 1h
16 | C=CC(=O)N1CCN(c2nc(=O)n3c4c(c(-c5c(F)cc(Cl)cc5F)c(Cl)cc24)SCC3)[C@@H](C)C1 [Example 106, (S)-7-(4-acryloyl-2-methylpiperazin-1-yl)-9-chloro-10-(4-chloro-2,6-difluorophenyl)-2,3-dihydro-5H-[1,4]thiazino[2,3,4-ij]quinazolin-5-one] | 45.2%
17 | C=CC(=O)N1C[C@H](C)N(c2nc(=O)n3c4c(c(-c5ccc(F)cc5F)c(Cl)cc24)S(=O)(=O)CC3)C[C@H]1C (atropisomer, axis not shown) [Example 177, (S)-7-((2S,5R)-4-acryloyl-2,5-dimethylpiperazin-1-yl)-9-chloro-10-(2,4-difluorophenyl)-2,3-dihydro-5H-[1,4]thiazino[2,3,4-ij]quinazolin-5-one 1,1-dioxide] | 93.5%

Results, then the compound that gave them:

Row | % CAF @ 10 uM, 1h | Structure (SMILES)
18 | 94.1% | C=CC(=O)N1CCN(c2nc(=O)n3c4c(c(-c5ccc(F)cc5)c(Cl)cc24)SCC3)[C@@H](C)C1 [Example 151, (S)-7-(4-acryloyl-2-methylpiperazin-1-yl)-9-chloro-10-(4-fluorophenyl)-2,3-dihydro-5H-[1,4]thiazino[2,3,4-ij]quinazolin-5-one]
19 | 95.4% | C=CC(=O)N1CCN(c2nc(=O)n3c4c(c(-c5ccc(F)cc5F)c(C5CC5)cc24)SCC3)[C@@H](C)C1 [Example 143, 7-((S)-4-acryloyl-2-methylpiperazin-1-yl)-9-cyclopropyl-10-(2,4-difluorophenyl)-2,3-dihydro-5H-[1,4]thiazino[2,3,4-ij]quinazolin-5-one]
20 | 94.5% | C=CC(=O)N1CCN(c2nc(=O)n3c4c(c(-c5ccc(F)cc5F)c(Cl)cc24)SC[C@H]3COC)[C@@H](C)C1 [Example 130, (3R)-7-((S)-4-acryloyl-2-methylpiperazin-1-yl)-9-chloro-10-(2,4-difluorophenyl)-3-(methoxymethyl)-2,3-dihydro-5H-[1,4]thiazino[2,3,4-ij]quinazolin-5-one]
21 | 44.6% | C=CC(=O)N1CCN(c2nc(=O)n3c4c(c(-c5ccc(F)cc5F)c(Cl)cc24)SCC3CN2CCOCC2)[C@@H](C)C1 (stereo partly drawn) [Example 147, 7-((S)-4-acryloyl-2-methylpiperazin-1-yl)-9-chloro-10-(2,4-difluorophenyl)-3-(morpholinomethyl)-2,3-dihydro-5H-[1,4]thiazino[2,3,4-ij]quinazolin-5-one]
22 | 89% | N#CC[C@H]1CN(c2nc(=O)n3c4c(c(-c5ccc(F)cc5F)c(Cl)cc24)SCC3)CCN1C(=O)/C=C/C(F)(F)F [Example 81, 2-((2S)-4-(9-chloro-10-(2,4-difluorophenyl)-5-oxo-2,3-dihydro-5H-[1,4]thiazino[2,3,4-ij]quinazolin-7-yl)-1-((E)-4,4,4-trifluorobut-2-enoyl)piperazin-2-yl)acetonitrile]
23 | 95.6% | C=CC(=O)N1CCN(c2nc(=O)n3c4c(c(-c5cccc(F)c5F)c(Cl)cc24)SCC3)[C@@H](C)C1 [Example 74, 7-((S)-4-acryloyl-2-methylpiperazin-1-yl)-9-chloro-10-(2,3-difluorophenyl)-2,3-dihydro-5H-[1,4]thiazino[2,3,4-ij]quinazolin-5-one]

Same assay, conditions: 10 μM, 1 h; Table 4

Row | % CAF @ 10 μM, 1 h | Structure (SMILES)
24 | 94.5% | C=CC(=O)N1CCN(c2nc(=O)n3c4c(c(-c5ccc(F)cc5F)c(Cl)cc24)SC[C@H]3COC)[C@@H](C)C1 [Example 130, (3R)-7-((S)-4-acryloyl-2-methylpiperazin-1-yl)-9-chloro-10-(2,4-difluorophenyl)-3-(methoxymethyl)-2,3-dihydro-5H-[1,4]thiazino[2,3,4-ij]quinazolin-5-one]
